Source: BindingDB's records for patent US11034692 (Genentech, 2021)

Target: Mitogen-activated protein kinase kinase kinase kinase 1 (Homo sapiens, UniProt Q92918)
Test: Binding Assay
Experimental: Lanth: For the binding assay, 4 ul 2×HPK1 and Eu-anti-GST antibody were added to each well of the assay plate using a Multidrop reagent dispenser. The solutions were incubated in a 23 C incubator for 1 h. To each well of the assay plate was added 4 ul 2× Tracer-222 using a Multidrop reagent dispenser. The solutions were again incubated in a 23 C incubator for 1 h. The results of the assay were read using an Envision plate reader with the following parameters: TR_FRET, 340ex/615 and 665em; 100 usec Delay; and 200 usec integration.

Chain of Mitogen-activated protein kinase kinase kinase kinase 1 (Q92918 whole entry): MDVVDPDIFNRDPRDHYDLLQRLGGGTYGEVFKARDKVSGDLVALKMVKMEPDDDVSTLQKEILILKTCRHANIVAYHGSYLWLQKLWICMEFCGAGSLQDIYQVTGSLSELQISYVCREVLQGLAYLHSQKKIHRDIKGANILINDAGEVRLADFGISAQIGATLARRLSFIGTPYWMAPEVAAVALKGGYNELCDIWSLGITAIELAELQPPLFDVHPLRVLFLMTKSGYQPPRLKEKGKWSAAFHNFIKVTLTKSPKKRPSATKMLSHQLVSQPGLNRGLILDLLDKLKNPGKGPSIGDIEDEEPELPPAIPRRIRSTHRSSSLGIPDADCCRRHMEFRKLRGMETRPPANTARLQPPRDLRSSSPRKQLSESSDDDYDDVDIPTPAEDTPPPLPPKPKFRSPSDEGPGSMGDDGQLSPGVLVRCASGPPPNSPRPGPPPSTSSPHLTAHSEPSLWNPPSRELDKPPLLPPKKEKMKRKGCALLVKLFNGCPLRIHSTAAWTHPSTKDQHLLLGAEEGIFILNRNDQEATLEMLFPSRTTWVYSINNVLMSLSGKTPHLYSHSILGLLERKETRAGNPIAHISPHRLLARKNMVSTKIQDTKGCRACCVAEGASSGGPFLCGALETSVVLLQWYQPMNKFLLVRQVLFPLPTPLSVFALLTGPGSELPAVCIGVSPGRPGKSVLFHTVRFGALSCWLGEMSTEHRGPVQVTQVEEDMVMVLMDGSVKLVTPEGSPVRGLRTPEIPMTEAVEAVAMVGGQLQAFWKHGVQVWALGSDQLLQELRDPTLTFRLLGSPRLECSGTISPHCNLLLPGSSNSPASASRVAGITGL

Ki: 2.87 nM
Compound: Cn1cc(-c2cc3cc(NC(=O)[C@H]4C[C@H]4F)ncc3c(N)n2)cn1 [US11034692, Compound 4]
